Experimental data as given in US5693844A, “2-cyano-3-hydroxy-propenamides” (Roussel UCLAF, priority 1995, dated 1997).
Where two headings read alike, the source gives them in different places.

Target: T1, human DHO-DH (Homo sapiens, UniProt Q02127)
T1 construct: The spleen tissue was chopped and then homogenized with a teflon glass homogenizer; from tissue; host or cells: human spleen, crude membrane preparation
Assay: Dihydroorotate Dehydrogenase (DHO-DH) Assay: DCIP-linked inhibition of human spleen membrane DHO-DH
Format: biochemical
Details: human spleen membranes, 90 min preincubation at 37° C., pH 8.0, 500 μM dihydroorotate, 100 μM coenzyme Q10, 200 μM DCIP, loss of absorbance at 650 nm
Text: Human spleen membrane DHO-DH catalyzed conversion of dihydroorotate to orotate is accompanied by reduction of coenzyme Q10. Reoxidation of coenzyme Q10 is linked to reduction of dichlorophenolindophenol and is monitored as a loss of absorbance at 650 nm. The rate of loss in absorbance is a direct measurement of the rate of the DHO-DH enzyme catalyzed reaction.
Crude membrane preparations were made using a modification of a published differential centrifugation procedure. All procedures were carried out on ice or at a temperature of 4° C. using pre-cooled buffers and equipment.
The spleen tissue was chopped and then homogenized with a teflon glass homogenizer (about 10 passes at 250 rpm) in 10 volumes of a homogenization buffer (10 mM Tris-HCl containing 0.25M sucrose, 10 μg/ml soybean trypsin inhibitor, 2 μg/ml aprotinin, pepstatin A and leupeptin pH 7.4). The homogenate was centrifuged at ^~ 470 g for 10 minutes and the supernatant was saved. Pellets were resuspended in 4-6 volumes of homogenization buffer using 5 passes of the teflon glass homogenizer (250 rpm) and centrifuged for 10 minutes at ^~ 470 g. The supernatant was combined with that from the first centrifugation step (post nuclear fraction) and the pellets containing nuclei and tissue debris were discarded. The post nuclear supernatant was centrifuged at 125,000 g for 40 minutes. The pellets were resuspended in homogenization buffer (2 ml/g wet tissue) using about 10 passes of the teflon glass homogenizer. Aliquots of the preparation were stored at -80° C.
Membranes (0.33-0.5 mg protein) were incubated with 100 μM coenzyme Q10 in 50 mM Tris-HCl, 0.1% Triton X-100, 1 mM KCN pH 8.0. Following a 90 minute preincubation at 37° C., the reaction was initiated by addition of 500 μM of dihydroorotate and the reduction of DCIP (200 μM) was monitored by loss of absorbance at 650 nm using a 96-well plate reader at 37° C. Drug concentrations increased in half log unit or full log unit intervals with each concentration tested at least in triplicate.

T1 sequence (Q02127 whole entry): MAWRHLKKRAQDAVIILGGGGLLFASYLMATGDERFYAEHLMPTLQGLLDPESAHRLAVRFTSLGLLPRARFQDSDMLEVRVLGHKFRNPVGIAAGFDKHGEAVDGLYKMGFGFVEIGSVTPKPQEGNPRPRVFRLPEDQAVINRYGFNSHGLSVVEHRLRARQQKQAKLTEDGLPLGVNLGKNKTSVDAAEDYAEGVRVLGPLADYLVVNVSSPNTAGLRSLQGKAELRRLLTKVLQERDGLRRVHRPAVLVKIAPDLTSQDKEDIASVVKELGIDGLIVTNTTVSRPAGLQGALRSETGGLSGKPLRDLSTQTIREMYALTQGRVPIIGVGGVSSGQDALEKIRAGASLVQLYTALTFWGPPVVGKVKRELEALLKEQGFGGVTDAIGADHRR

SMILES	IC50 (read-out: IC50)	IC50
N#Cc1ccc(NC(=O)C(C#N)C(=O)C2CC2)cc1 (stereo not shown) [A]	1950 to 2100 nM	–
C#CC(=O)C(C#N)C(=O)Nc1ccc(C(F)(F)F)cc1 (stereo not shown) [B]	> 100 nM	–
CC=CC(=O)C(C#N)C(=O)Nc1ccc(C(F)(F)F)cc1 (stereo not shown) [C]	–	79.4 nM
N#CC(C(=O)Nc1ccc([S+]([O-])C(F)(F)F)cc1)=C(O)C1CC1 (stereo not shown) [Example 2, N-(4'-trifluoromethylsulfinyl-phenyl)-2-cyano-3-cyclopropyl-3-hydroxy-prop-2-enamide]	300 nM	–
